pIC50: −log10 of the molar value.
Tests used:
[1] = target: T1, TIE2 Receptor Kinase (TIE2) (Homo sapiens, UniProt Q02763); assay: Determination of TIE2 receptor kinase (TIE2) inhibitory activity (alpha screen); assay type: biochemical; conditions: TIE2 intracellular domain protein, 5 μM ATP buffer; read-out: IC50 value (TIE2 kinase inhibition)
T1 construct: TIE2 intracellular domain protein (UPSTATE); purchased UPSTATE
Protocol: The test compound dissolved in dimethyl sulfoxide (DMSO) was diluted with a buffer (50 mM Tris-HCl, pH 7.5, 5 mM MgCl2, 5 mM MnCl2, 2 mM dithiothreitol, 0.01% Tween-20). A buffer (10 μl) containing 50 ng/ml TIE2 intracellular domain protein (UPSTATE) and 250 ng/ml biotin-labeled polypeptide biotinyl-poly-Glu:Tyr (4:1) (CIS Bio International) was added to the compound solution (5 μl). At 5 min after mixing a kinase enzyme, the compound and a biotin-labeled polypeptide, a buffer (10 μl) containing 5 μM ATP was added to the obtained mixture, the mixture was allowed to react at 25° C. for 10 min. Then, 25 μl of a stop solution (100 mM EDTA·2 sodium salt, 62.5 mM HEPES buffer (pH 7.4), 250 mM NaCl, 0.1% bovine serum albumin, 10 μg/ml Streptavidin Donor beads: PerkinElmer for alpha screen assay, 10 μg/ml Anti-phosphotyrosine (P-Tyr-66) Acceptor beads: PerkinElmer for alpha screen assay) was added to quench the reaction. The reaction solution was stood at 25° C. for 16 hr, and the count was measured using a plate reader·Fusion™ (manufactured by PerkinElmer). The kinase inhibitory rate (%) of the test compound was calculated by the following formula.
(§1) Inhibitory rate(%)=(1−(count of test compound−blank)÷(control−blank))×100
(§2) wherein the count of the solution reacted without addition of the compound is “control” and the count of the solution without addition of the compound and ATP is “blank”.
Prism (Graphpad Software) according to the nonlinear-regression sigmoidal dose-response (variable slope) analysis method.

[2] = target: T2, PDGFR Alpha Receptor Kinase (PDGFRalpha) (Homo sapiens, UniProt P16234); assay: Determination of PDGFR alpha receptor kinase (PDGFRalpha) inhibitory activity (alpha screen); assay type: biochemical; conditions: PDGFRalpha intracellular domain protein, 25 μM ATP buffer; read-out: IC50 value (PDGFRalpha kinase inhibition)
T2 construct: PDGFRalpha intracellular domain protein (UPSTATE); purchased UPSTATE
T2 sequence (P16234 550-1089 limits assumed): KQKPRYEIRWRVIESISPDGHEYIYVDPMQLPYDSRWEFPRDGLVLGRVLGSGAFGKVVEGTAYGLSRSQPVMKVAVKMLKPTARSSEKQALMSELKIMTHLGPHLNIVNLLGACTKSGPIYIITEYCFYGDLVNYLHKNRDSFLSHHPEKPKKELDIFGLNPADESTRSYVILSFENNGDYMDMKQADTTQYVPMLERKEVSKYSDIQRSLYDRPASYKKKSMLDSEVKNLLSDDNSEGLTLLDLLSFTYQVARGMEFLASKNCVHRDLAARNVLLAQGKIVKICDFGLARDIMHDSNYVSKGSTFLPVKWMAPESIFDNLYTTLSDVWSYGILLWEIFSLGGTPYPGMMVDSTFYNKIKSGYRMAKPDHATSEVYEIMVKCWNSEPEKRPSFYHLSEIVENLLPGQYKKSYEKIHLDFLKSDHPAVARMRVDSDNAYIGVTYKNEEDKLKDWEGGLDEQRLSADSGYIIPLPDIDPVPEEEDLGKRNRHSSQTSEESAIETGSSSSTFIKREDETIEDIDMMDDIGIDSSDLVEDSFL
Protocol: The test compound dissolved in dimethyl sulfoxide (DMSO) was diluted with a buffer (50 mM Tris-HCl, pH 7.5, 5 mM MgCl2, 5 mM MnCl2, 2 mM dithiothreitol, 0.01% Tween-20).
Acceptor beads: PerkinElmer for alpha screen assay) was added to quench the reaction. The reaction solution was stood at 25° C. for 16 hr, and the count was measured using a plate reader·Fusion™ (manufactured by PerkinElmer). The kinase inhibitory rate (%) of the test compound was calculated by the following formula.
as §1, §2

[3] = system: Human umbilical vein endothelial cells (HUVEC); assay: Vascular endothelial cell growth inhibitory test; assay type: cell-based; conditions: Homo sapiens, 120 h, VEGF 120 ng/mL, culture 5 days, XTT reagent
Protocol: Human umbilical vein endothelial cells (HUVEC, purchased from KURABO) were cultured in a gas incubator (37° C., CO2 5%) in a vascular endothelial cell medium (Invitrogen) containing 5% fetal calf serum and a basic fibroblast growth factor (2.5 ng/mL). To be specific, HUVEC suspended in the aforementioned vascular endothelial cell medium (Invitrogen) containing 5% fetal calf serum were seeded into a 96 well flat-bottom plate (50 μL, 3000 cells each well). After culturing overnight, various concentrations of test substance and the final concentration (120 ng/mL) of vascular endothelial growth factor (VEGF) were dissolved in a vascular endothelial cell medium (Invitrogen) containing 5% fetal calf serum and added to each well (50 μL). After culturing for 5 days, an XTT reagent (Wako Pure Chemical Industries, Ltd.) was added to each well (10 μL), and reacted in a gas incubator (37° C., CO2 5%) for 2-3 hr. The absorbance at 450 nm was measured by a microtiter plate reader, and the cell growth inhibitory activity was determined.

T1 sequence (Q02763 770-1124 limits assumed): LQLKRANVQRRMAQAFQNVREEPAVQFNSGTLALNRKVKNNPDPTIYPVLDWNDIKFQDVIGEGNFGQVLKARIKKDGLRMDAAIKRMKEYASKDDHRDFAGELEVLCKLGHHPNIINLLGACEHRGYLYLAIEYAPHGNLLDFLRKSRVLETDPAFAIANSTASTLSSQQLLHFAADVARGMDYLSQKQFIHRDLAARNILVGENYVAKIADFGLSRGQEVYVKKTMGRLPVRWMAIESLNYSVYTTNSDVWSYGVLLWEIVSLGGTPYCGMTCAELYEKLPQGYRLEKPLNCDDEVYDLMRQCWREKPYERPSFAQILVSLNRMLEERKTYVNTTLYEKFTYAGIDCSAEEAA

| SMILES | pIC50 [1] | pIC50 [2] | pIC50 [3] |
| --- | --- | --- | --- |
| Cn1ccc2ncnc(Oc3ccc(NC(=O)Nc4cccc(C(F)(F)F)c4)c(Cl)c3)c21 [Example 15, N-{2-chloro-4-[(5-methyl-5H-pyrrolo[3,2-d]pyrimidin-4-yl)oxy]phenyl}-N′-[3-(trifluoromethyl)phenyl]urea] | ≥ 8.30 | ≥ 6.30 | 8.09 |
| CCn1ccc2ncnc(Oc3ccc(NC(=O)Nc4cccc(C(F)(F)F)c4)c(Cl)c3)c21 [Example 47, N-{2-chloro-4-[(5-ethyl-5H-pyrrolo[3,2-d]pyrimidin-4-yl)oxy]phenyl}-N′-[3-(trifluoromethyl)phenyl]urea] | ≥ 8.30 | ≥ 6.30 | 7.96 |
| Cc1cc(Oc2ncnc3ccn(C)c23)ccc1NC(=O)Nc1cccc(C(F)(F)F)c1 [Example 41, N-{2-methyl-4-[(5-methyl-5H-pyrrolo[3,2-d]pyrimidin-4-yl)oxy]phenyl}-N′-[3-(trifluoromethyl)phenyl]urea] | ≥ 8.30 | ≥ 6.30 | 7.72 |
| Cn1ccc2ncnc(Oc3ccc(NC(=O)Nc4cccc(OC(F)(F)F)c4)c(Cl)c3)c21 [Example 20, N-{2-chloro-4-[(5-methyl-5H-pyrrolo[3,2-d]pyrimidin-4-yl)oxy]phenyl}-N′-[3-(trifluoromethoxy)phenyl]urea] | ≥ 8.30 | ≥ 6.30 | 8.18 |

Reference: patent US20090137580A1, “Fused Heterocyclic Derivatives and Use Thereof” (Takeda Pharmaceutical Company Limited, priority 2005, published 2009)
